These compounds were tested against T1, human TSHR (Homo sapiens, UniProt P16473) (assay: Antagonist activity using TSH-induced cAMP production in human TSHR-stably expressing CHO cells). Conditions: human TSH final concentration of 50 ng/mL, cAMP production rate.
T1 construct: expressed in transfected cells
Format: cell-based
Experimental: Measurement of antagonist activity using TSH-induced cAMP production in human TSHR-stably expressing CHO cells as an indicator
The gene sequence (reference number NM_000369.2) of human TSHR was inserted into the multiple cloning site of pcDNA3.1(+). The prepared plasmid vector was introduced into CHO cells using a lipofection method to establish human TSHR-stably expressing CHO cells. The obtained cells were seeded at 5 x 10^4 cells/well in a 96-well poly-D-lysine-coated plate, and cultured in an F12 culture medium containing 10% FBS, 400 µg/mL of G418, 50 U/mL of penicillin and 50 µg/mL of streptomycin under conditions of 37°C and 5% CO2 for 1 day. The culture medium was removed, and the cells were then washed twice with 100 µL of an assay buffer (Hanks' Balanced Salt Solution containing 20 mM HEPES and 1 mM IBMX) per well. 30 µL of an assay buffer containing a test compound was added to the well, and incubation was performed at room temperature for 15 minutes. Then, 30 µL of an assay buffer containing human TSH (a final concentration of 50 ng/mL, R&D Systems, Inc.) was added, and incubation was performed at 37°C for 1 hour. The supernatant was removed, a Lysis and Detection Buffer 2 (Cisbio) was added, and incubation was performed at room temperature for 1 hour to prepare a cell lysate. According to the instruction manual of a cAMP Gs HiRange kit (Cisbio), the cell lysate, d2-labeled cAMP and anti-cAMP Europium Cryptate labeled antibodies (Cisbio) were reacted in a 384-well white microplate. Then, a fluorescence intensity ratio (measurement wavelength 665 nm/620 nm) was measured using a multi-plate reader (PHERAstar FSX, BMG LABTECH Japan). The fluorescence intensity ratio of each sample was converted to a cAMP content using a standard curve. The cAMP content was converted as a percentage of the control value to calculate a cAMP production rate. The cAMP production rate was plotted against the test compound concentration using Prism (Graph Pad Software Inc.) to calculate the IC50 value. In the tables, IC50<3.0 µM was indicated as A, and 3.0 µM≤IC50<30 µM was indicated as B. If activity was observed but the IC50 value could not be calculated, it was indicated as C.

T1 sequence (P16473 21-764): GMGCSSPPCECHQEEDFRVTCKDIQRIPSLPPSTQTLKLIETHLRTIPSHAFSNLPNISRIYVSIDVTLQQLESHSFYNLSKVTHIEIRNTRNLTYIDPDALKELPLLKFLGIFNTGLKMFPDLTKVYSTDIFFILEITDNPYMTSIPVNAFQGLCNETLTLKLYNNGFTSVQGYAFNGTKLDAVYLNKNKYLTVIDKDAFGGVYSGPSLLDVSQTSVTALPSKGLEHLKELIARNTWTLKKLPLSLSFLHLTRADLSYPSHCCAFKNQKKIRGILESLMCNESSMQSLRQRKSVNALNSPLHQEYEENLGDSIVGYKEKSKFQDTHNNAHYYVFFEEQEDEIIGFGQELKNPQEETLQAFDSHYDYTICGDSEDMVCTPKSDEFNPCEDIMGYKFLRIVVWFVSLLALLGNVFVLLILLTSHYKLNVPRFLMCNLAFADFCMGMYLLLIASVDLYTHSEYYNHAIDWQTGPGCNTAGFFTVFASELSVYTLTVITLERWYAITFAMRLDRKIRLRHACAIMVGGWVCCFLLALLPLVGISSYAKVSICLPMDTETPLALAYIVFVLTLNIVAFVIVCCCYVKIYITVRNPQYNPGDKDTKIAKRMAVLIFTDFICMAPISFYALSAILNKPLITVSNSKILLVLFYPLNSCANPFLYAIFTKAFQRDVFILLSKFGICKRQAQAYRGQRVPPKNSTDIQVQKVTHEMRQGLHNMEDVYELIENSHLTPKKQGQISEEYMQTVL

**Q.** With `Cc1ccc2c(c1Oc1cc(F)ccc1Cl)N(C)C(=O)[C@H](NC(N)=O)[C@H]2O` (relative stereo) [Example 21, 1-((3R^*,4S^*)-8-(2-chloro-5-fluorophenoxy)-4-hydroxy-1,7-dimethyl-2-oxo-1,2,3,4-tetrahydroquinoline-3-yl)urea] as the compound, how does the IC50 read?
**A.** < 3 µM

**Q.** With `CN1C(=O)C(C(N)=O)Cc2cc(NC(=O)OC3CCCC3)cc(Oc3ccccc3)c21` (centres unmarked) [Example 1, cyclopentyl (3-carbamoyl-1-methyl-2-oxo-8-phenoxy-1,2,3,4-tetrahydroquinoline-6-yl)carbamate] as the compound, how does the IC50 read?
**A.** 3 to 30 µM

**Q.** With `CN1C(=O)C(CC(N)=O)Cc2cc(NC(=O)OC3CCCC3)cc(Oc3ccccc3)c21` (centres unmarked) [Example 2, cyclopentyl (3-(2-amino-2-oxoethyl)-1-methyl-2-oxo-8-phenoxy-1,2,3,4-tetrahydroquinoline-6-yl)carbam ate] as the compound, how does the IC50 read?
**A.** < 3 µM

**Q.** For `CN1C(=O)C(CC(N)=O)Cc2cc(NC(=O)OC3CCCC3)cc(Oc3ccccc3C#N)c21` (centres unmarked) [Example 3, cyclopentyl (3-(2-amino-2-oxoethyl)-8-(2-cyanophenoxy)-1-methyl-2-oxo-1,2,3,4-tetrahydroquinoline-6-yl)carbamate], which IC50 is on record?
**A.** < 3 µM

**Q.** With `CN1C(=O)C(NC(N)=O)Cc2cc(NC(=O)OC3CCCC3)cc(Oc3ccccc3C#N)c21` (centres unmarked) [Example 4, cyclopentyl (8-(2-cyanophenoxy)-1-methyl-2-oxo-3-ureido-1,2,3,4-tetrahydroquinoline-6-yl)carbamate] as the compound, how does the IC50 read?
**A.** < 3 µM

**Q.** How did the IC50 turn out when `CN1C(=O)C(NC(N)=O)Cc2cc(NC(=O)OC3CCCC3)cc(Oc3cccc(C(F)(F)F)n3)c21` (centres unmarked) [Example 5, cyclopentyl (1-methyl-2-oxo-8-((6-trifluoromethylpyridin-2-yl)oxy)-3-ureido-1,2,3,4-tetrahydroquinoline-6-yl)carbamate] was run?
**A.** < 3 µM

**Q.** For `C[C@H](OC(=O)Nc1cc2c(c(Oc3cccc(C(F)(F)F)n3)c1)N(C)C(=O)C(NC(N)=O)C2)C(F)(F)F` (stereo partly drawn) [Example 6, (S)-1,1,1-trifluoropropan-2-yl (1-methyl-2-oxo-8-((6-trifluoromethylpyridin-2-yl)oxy)-3-ureido-1,2,3,4-tetrahydroquinoline-6-yl)carbamate], which IC50 is on record?
**A.** < 3 µM

**Q.** For `CN1C(=O)C(NC(N)=O)Cc2cc(NC(=O)OCC3CC3)cc(Oc3cccc(C(F)(F)F)n3)c21` (centres unmarked) [Example 7, cyclopropylmethyl (1-methyl-2-oxo-8-((6-(trifluoromethyl)pyridin-2-yl)oxy)-3-ureido-1,2,3,4-tetrahydroquinoline-6-yl)carbamate], which IC50 is on record?
**A.** < 3 µM

**Q.** How did the IC50 turn out when `CN1C(=O)C(NC(N)=O)Cc2cc(NC(=O)OC3(C)CC3)cc(Oc3cccc(C(F)(F)F)n3)c21` (centres unmarked) [Example 8, 1-methylcyclopropyl (1-methyl-2-oxo-8-((6-(trifluoromethyl)pyridin-2-yl)oxy)-3-ureido-1,2,3,4-tetrahydroquinoline-6-yl)carbamate] was run?
**A.** < 3 µM

**Q.** How did the IC50 turn out when `CC(C)OC(=O)Nc1cc2c(c(Oc3cccc(C(F)(F)F)n3)c1)N(C)C(=O)C(NC(N)=O)C2` (centres unmarked) [Example 9, isopropyl (1-methyl-2-oxo-8-((6-trifluoromethylpyridin-2-yl)oxy)-3-ureido-1,2,3,4-tetrahydroquinoline-6-yl)carbamate] was run?
**A.** < 3 µM

**Q.** For `CN1C(=O)C(CNC(N)=O)Cc2cccc(Oc3ccccc3)c21` (centres unmarked) [Example 10, 1-((1-methyl-2-oxo-8-phenoxy-1,2,3,4-tetrahydroquinoline-3-yl)methyl)urea], which IC50 is on record?
**A.** 3 to 30 µM

**Q.** `CN1C(=O)[C@H](NC(N)=O)Cc2cccc(C(=O)c3ccccc3Cl)c21` [Example 11, (R)-1-(8-(2-chlorobenzoyl)-1-methyl-2-oxo-1,2,3,4-tetrahydroquinoline-3-yl)urea] was tested. Which IC50 did it give?
**A.** < 3 µM

**Q.** `CN1C(=O)[C@H](NC(N)=O)Cc2cccc(C(O)c3ccccc3Cl)c21` (stereo partly drawn) [Example 12, 1-((3R)-8-((2-chlorophenyl)(hydroxy)methyl)-1-methyl-2-oxo-1,2,3,4-tetrahydroquinoline-3-yl)urea] was tested. Which IC50 did it give?
**A.** > 30 µM

**Q.** How did the IC50 turn out when `C=C(c1ccccc1Cl)c1cccc2c1N(C)C(=O)[C@H](NC(N)=O)C2` [Example 13, (R)-1-(8-(1-(2-chlorophenyl)vinyl)-1-methyl-2-oxo-1,2,3,4-tetrahydroquinoline-3-yl)urea] was run?
**A.** < 3 µM

**Q.** How did the IC50 turn out when `CN1C(=O)C(NC(N)=O)Cc2cccc(C(C)(C)c3ccccc3)c21` (centres unmarked) [Example 14, 1-(1-methyl-2-oxo-8-(2-phenylpropan-2-yl)-1,2,3,4-tetrahydroquinoline-3-yl)urea] was run?
**A.** 3 to 30 µM

**Q.** `CC1(c2ccccc2)CC(C)(C)N2C(=O)[C@H](NC(N)=O)Cc3cccc1c32` (stereo partly drawn) [Example 15, 1-((2R)-5,5,7-trimethyl-3-oxo-7-phenyl-2,3,6,7-tetrahydro-1H,5H-pyrido[3,2,1-ij]quinolin-2-yl)urea] was tested. Which IC50 did it give?
**A.** < 3 µM

**Q.** `CC1(c2ccccc2)CCN2C(=O)[C@H](NC(N)=O)Cc3cccc1c32` (stereo partly drawn) [Example 16, 1-((2R)-7-methyl-3-oxo-7-phenyl-2,3,6,7-tetrahydro-1H,5H-pyrido[3,2,1-ij]quinoline-2-yl)ur ea] was tested. Which IC50 did it give?
**A.** 3 to 30 µM

**Q.** `CC1(c2ccccc2)C(=O)C(C)(C)N2C(=O)[C@H](NC(N)=O)Cc3cccc1c32` (stereo partly drawn) [Example 17, 1-((2R)-5,5,7-trimethyl-3,6-dioxo-7-phenyl-2,3,6,7-tetrahydro-1H,5H-pyrido[3,2,1-ij]quinoline-2-yl)urea] was tested. Which IC50 did it give?
**A.** < 3 µM

**Q.** `CN1C(=O)[C@H](NC(N)=O)Cc2cccc(OCc3ccccc3)c21` [Example 18, (R)-1-(8-(benzyloxy)-1-methyl-2-oxo-1,2,3,4-tetrahydroquinoline-3-yl)urea] was tested. Which IC50 did it give?
**A.** > 30 µM

**Q.** `Cc1ccc2c(c1Oc1cc(F)ccc1Cl)N(C)C(=O)[C@H](NC(=O)N1CCOCC1)C2` [Example 19, (R)-N-(8-(2-chloro-5-fluorophenoxy)-1,7-dimethyl-2-oxo-1,2,3,4-tetrahydroquinoline-3-yl)m orpholine-4-carboxamide] was tested. Which IC50 did it give?
**A.** < 3 µM

**Q.** How did the IC50 turn out when `Cc1ccc2c(c1Oc1cc(F)ccc1Cl)N(C)C(=O)[C@H](NC(=O)c1ccccc1)C2` [Example 20, (R)-N-(8-(2-chloro-5-fluorophenoxy)-1,7-dimethyl-2-oxo-1,2,3,4-tetrahydroquinoline-3-yl)b enzamide] was run?
**A.** < 3 µM

**Q.** How did the IC50 turn out when `COC(=O)N[C@@H]1Cc2cccc(Oc3cc(F)ccc3Cl)c2N(C)C1=O` [Example 22, methyl (R)-(8-(2-chloro-5-fluorophenoxy)-1-methyl-2-oxo-1,2,3,4-tetrahydroquinoline-3-yl)carbamate] was run?
**A.** < 3 µM

**Q.** Which IC50 does the source give for `CN1C(=O)[C@H](NS(N)(=O)=O)Cc2cccc(Oc3cc(F)ccc3Cl)c21` [Example 23] here?
**A.** < 3 µM

**Q.** For `CN1C(=O)[C@H](N2CCNC2=O)Cc2cccc(Oc3cc(F)ccc3Cl)c21` [Example 24, (R)-8-(2-chloro-5-fluorophenoxy)-1-methyl-3-(2-oxoimidazolidine-1-yl)-3,4-dihydroquinoline-2(1H)-one], which IC50 is on record?
**A.** 3 to 30 µM

**Q.** `CN1C(=O)[C@H](N2CCOC2=O)Cc2cccc(Oc3cc(F)ccc3Cl)c21` [Example 25, (R)-3-(8-(2-chloro-5-fluorophenoxy)-1-methyl-2-oxo-1,2,3,4-tetrahydroquinoline-3-yl)oxazo lidine-2-one] was tested. Which IC50 did it give?
**A.** > 30 µM

**Q.** With `CN1C(=O)C(OC(N)=O)Cc2cccc(Oc3cc(F)ccc3Cl)c21` (centres unmarked) [Example 26, 8-(2-chloro-5-fluorophenoxy)-1-methyl-2-oxo-1,2,3,4-tetrahydroquinoline-3-yl carbamate] as the compound, how does the IC50 read?
**A.** < 3 µM

**Q.** With `CN1C(=S)C(NC(N)=O)Cc2cccc(Oc3cc(F)ccc3Cl)c21` (centres unmarked) [Example 27, 1-(8-(2-chloro-5-fluorophenoxy)-1-methyl-2-thioxo-1,2,3,4-tetrahydroquinoline-3-yl)urea] as the compound, how does the IC50 read?
**A.** < 3 µM

**Q.** With `NC(=O)NC1Cc2cccc(Oc3cc(F)ccc3Cl)c2-n2ccnc21` (centres unmarked) [Example 28, 1-(9-(2-chloro-5-fluorophenoxy)-4,5-dihydroimidazo[1,2-a]quinoline-4-yl)urea] as the compound, how does the IC50 read?
**A.** 3 to 30 µM

**Q.** How did the IC50 turn out when `Cc1cnc2n1-c1c(cccc1Oc1cc(F)ccc1Cl)CC2NC(N)=O` (centres unmarked) [Example 29, 1-(9-(2-chloro-5-fluorophenoxy)-1-methyl-4,5-dihydroimidazo[1,2-a]quinolin-4-yl)urea] was run?
**A.** 3 to 30 µM

**Q.** How did the IC50 turn out when `CC(c1ccccc1)c1cccc2c1N(C)C(=O)N(CC(N)=O)C2` (centres unmarked) [Example 30, 2-(1-methyl-2-oxo-8-(1-phenylethyl)-1,4-dihydroquinazoline-3(2H)-yl)acetamide] was run?
**A.** > 30 µM

**Q.** Which IC50 does the source give for `Cc1ccc2cc(NC(N)=O)c(=O)n(C)c2c1Oc1cc(F)ccc1Cl` [Example 31, 1-(8-(2-chloro-5-fluorophenoxy)-1,7-dimethyl-2-oxo-1,2-dihydroquinoline-3-yl)urea] here?
**A.** > 30 µM

**Q.** How did the IC50 turn out when `Cc1ccc2c(c1Oc1cc(F)ccc1Cl)N(C)C(=O)C1(NC(N)=O)CC21` (centres unmarked) [Example 32, 1-(4-(2-chloro-5-fluorophenoxy)-3,5-dimethyl-2-oxo-1,2,3,7b-tetrahydro-1aH-cyclopropa[c]quinoline-1a-yl)urea] was run?
**A.** 3 to 30 µM

From patent EP4818159A1 (Kissei Pharmaceutical Co., Ltd., priority 2023, dated 2025)
